Results reported in patent US20230091225A1, “Bifunctional chimeric heterocyclic compounds for targeted degradation of androgen receptors and use thereof” (HINOVA PHARMACEUTICALS INC., priority 2019, published 2023).
Read-outs that look alike come from different tables or passages of the source.

Molecular target: T1, androgen receptor (AR) (Homo sapiens, UniProt P10275)
T1 sequence (P10275 1-920): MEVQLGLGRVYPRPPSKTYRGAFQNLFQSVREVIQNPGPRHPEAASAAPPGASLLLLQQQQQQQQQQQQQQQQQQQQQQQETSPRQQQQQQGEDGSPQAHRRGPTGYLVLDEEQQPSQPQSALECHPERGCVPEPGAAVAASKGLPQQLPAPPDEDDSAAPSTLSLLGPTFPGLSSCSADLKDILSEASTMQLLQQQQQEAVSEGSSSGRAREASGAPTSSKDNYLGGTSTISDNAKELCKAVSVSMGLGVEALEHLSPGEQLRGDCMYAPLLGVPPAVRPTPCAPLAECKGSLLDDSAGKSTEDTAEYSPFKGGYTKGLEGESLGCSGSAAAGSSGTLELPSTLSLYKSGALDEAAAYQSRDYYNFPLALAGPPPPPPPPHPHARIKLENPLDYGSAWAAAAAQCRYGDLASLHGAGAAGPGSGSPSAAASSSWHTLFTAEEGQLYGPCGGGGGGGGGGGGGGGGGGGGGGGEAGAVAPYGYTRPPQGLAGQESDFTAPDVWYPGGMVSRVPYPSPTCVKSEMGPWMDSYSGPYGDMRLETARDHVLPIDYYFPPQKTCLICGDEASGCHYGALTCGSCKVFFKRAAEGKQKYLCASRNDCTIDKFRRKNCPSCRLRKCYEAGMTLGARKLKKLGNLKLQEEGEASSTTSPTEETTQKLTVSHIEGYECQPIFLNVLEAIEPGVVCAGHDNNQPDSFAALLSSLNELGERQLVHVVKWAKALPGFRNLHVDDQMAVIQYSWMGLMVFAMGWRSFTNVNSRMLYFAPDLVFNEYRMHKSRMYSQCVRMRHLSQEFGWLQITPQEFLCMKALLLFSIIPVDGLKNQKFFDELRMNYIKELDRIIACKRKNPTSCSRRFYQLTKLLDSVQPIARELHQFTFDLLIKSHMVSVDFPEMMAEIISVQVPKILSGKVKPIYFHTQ
Assay: Degradation of androgen receptor (AR) protein in VCaP cells by ELISA
Format: cell-based
Conditions: for Dmax: VCaP

[1] = AR degradation, VCaP cells, 16 h, ELISA, Table 3-1, read-out: DC50
[2] = AR degradation, VCaP cells, 16 h, ELISA, Table 3-1, read-out: Dmax (%)
[3] = AR degradation, VCaP cells, 16 h, ELISA, Table 3-2, read-out: DC50
[4] = AR degradation, VCaP cells, 16 h, ELISA, Table 3-2, read-out: Dmax (%)
[5] = AR degradation, VCaP cells, 16 h, ELISA, Table 3-1

| Structure (SMILES) | DC50 [1] [nM] | Dmax [%] | further results |
| --- | --- | --- | --- |
| C[C@@H]1CN(c2cnc(C(=O)N[C@H]3CC[C@H](Oc4ccc(C#N)c(Cl)c4)CC3)cn2)CCN1C[C@H]1[C@@H]2CN(c3cc4c(cc3F)C(=O)N(C3CCC(=O)NC3=O)C4=O)C[C@@H]21 (stereo partly drawn) [Compound 266, N-((1r,4R)-4-(3-chloro-4-cyanophenoxy)cyclohexyl)-5-((3R)-4-((1R,5S,6s)-3-(2-(2,6-dioxopiperidin-3-yl)-6-fluoro-1,3-dioxoisoindolin-5-yl)-3-azabicyclo[3.1.0]n-hexane-6-yl)methyl-3-methylpiperazin-1-yl)pyrazine-2-carboxamide] | 10 to 100 |  | Dmax [2]: > 80% |
| N#Cc1ccc(O[C@H]2CC[C@H](NC(=O)c3nnc(N4CCC(CN5CCC6(CC5)CN(c5ccc7c(c5)C(=O)N(C5CCC(=O)NC5=O)C7=O)C6)CC4)o3)CC2)cc1Cl (stereo partly drawn) [Compound 414] |  |  | DC50 [3]: < 10 nM; Dmax [4]: > 80% |
| N#Cc1ccc(O[C@H]2CC[C@H](NC(=O)c3cnc(N4CCC(CN5CCC6(CC5)CN(c5ccc7c(c5)C(=O)N(C5CCC(=O)NC5=O)C7=O)C6)CC4)cn3)CC2)cc1Cl (stereo partly drawn) [Compound 241, N-((1r,4r)-4-(3-chloro-4-cyanophenoxy)cyclohexyl)-6-(4-((2-(2-(2-,2,6-dioxopiperidin-3-yl)-1,3-dioxoisoindolin-5-yl)-2,7-diazaspiro[3.5]nonan-7-yl)methyl)piperidin-1-yl)pyrazine-3-carboxamide] |  | > 80 | DC50: < 10 nM |
| Cc1cc(O[C@H]2C(C)(C)[C@H](N3Cc4nc(C#C[C@H]5CC[C@H](N6CCN(c7cc8c(cc7F)C(=O)N(C7CCC(=O)NC7=O)C8=O)CC6)CC5)ccc4C3=O)C2(C)C)ccc1C#N (stereo partly drawn) [Compound 401] |  | > 80 | DC50 [3]: 10 to 100 nM |
| CC1(C)[C@H](Oc2ccc(C#N)c(Cl)c2)C(C)(C)[C@H]1N1Cc2nc(C#CC3CCC(N4CC5(CCN(c6cc7c(cc6F)C(=O)N(C6CCC(=O)NC6=O)C7=O)C5)C4)CC3)ccc2C1=O (stereo partly drawn) [Compound 370] | 100 to 300 |  | Dmax (%) [5]: ++ (60%-40%) |
| CN(C1CCN(c2ccc(C(=O)N[C@H]3CC[C@H](Oc4ccc(C#N)c(Cl)c4)CC3)nn2)CC1)C1CCN(c2cc3c(cc2F)C(=O)N(C2CCC(=O)NC2=O)C3=O)CC1 (stereo partly drawn) [Compound 119] | < 10 | > 80 |  |
| N#Cc1ccc(O[C@H]2CC[C@H](NC(=O)c3cnc(N4CCC(CN5CCC6(CC5)CN(c5ccc7c(c5)C(=O)N(C5CCC(=O)NC5=O)C7=O)C6)CC4)nc3)CC2)cc1Cl (stereo partly drawn) [Compound 267] | < 10 |  | Dmax [2]: > 80% |
| N#Cc1ccc(OC2CCC(NC(=O)c3ncn(C4CCC(CN5CCC6(CC5)CN(c5ccc7c(c5)C(=O)N(C5CCC(=O)NC5=O)C7=O)C6)CC4)n3)CC2)cc1Cl [Compound 84, N-((1r,4R)-4-(3-chloro-4-cyanophenoxy)cyclohexyl)-1-(1r,4R)-4-((2-(2-(2,6-dioxopiperidin-3-yl)-1,3-dioxoisoindolin-5-yl)-2,7-diazaspiro[3.5]nonan-7-yl)methyl)cyclohexyl)-1H-1,2,4-triazole-3-carboxamide] | < 10 |  | Dmax (%) [5]: ++++ (>80%) |
| N#Cc1ccc(O[C@H]2CC[C@H](NC(=O)c3cnc(N4CC5(CCN(C6CCN(c7cc8c(cc7F)C(=O)N(C7CCC(=O)NC7=O)C8=O)CC6)C5)C4)cn3)CC2)cc1Cl (stereo partly drawn) [Compound 82, N-((1r,4r)-4-(3-chloro-4-cyanophenoxy)cyclohexyl)-5-(6-(1-(2-(2,6-dioxopiperidin-3-yl)-6-fluoro-1,3-dioxoisoindolin-5-yl)piperidine-4-yl)-2,6-diazaspiro [3.4]octane-2-yl)pyrazine-2-carboxamide] | < 10 | > 80 |  |
| CC1(C)[C@H](Oc2ccc(C#N)c(Cl)c2)C(C)(C)[C@H]1N1Cc2nc(C#C[C@H]3C[C@H](N4CCN(c5cc6c(cc5F)C(=O)N(C5CCC(=O)NC5=O)C6=O)CC4)C3)cnc2C1=O (stereo partly drawn) [Compound 391] |  |  | DC50 [3]: 100 to 300 nM; Dmax [4]: > 80% |
| N#Cc1ccc(O[C@H]2CC[C@H](NC(=O)c3nnc(N4CCC(CN5CCC6(CC5)CN(c5ccc7c(c5)C(=O)N(C5CCC(=O)NC5=O)C7=O)C6)CC4)s3)CC2)cc1Cl (stereo partly drawn) [Compound 243] |  | > 80 | DC50: < 10 nM |
| CC1(C)[C@H](Oc2ccc(C#N)c(Cl)c2)C(C)(C)[C@H]1N1Cc2nc(C#CC3CCC(N4CCC5(CC4)CN(c4cc6c(cc4F)C(=O)N(C4CCC(=O)NC4=O)C6=O)C5)CC3)ccc2C1=O (stereo partly drawn) [Compound 363] | 10 to 100 |  | Dmax [2]: 60 to 80% |
| N#Cc1ccc(O[C@H]2CC[C@H](NC(=O)c3ccc(N4CCC(CN5CCC6(CC5)CN(c5ccc7c(c5)C(=O)N(C5CCC(=O)NC5=O)C7=O)C6)CC4)nn3)CC2)cc1C(F)(F)F (stereo partly drawn) [Compound 151] |  | > 80 | DC50: < 10 nM |
| N#Cc1ccc(O[C@H]2CC[C@H](NC(=O)c3nnc(N4CCC(CN5CCC6(CC5)CN(c5cc7c(cc5F)C(=O)N(C5CCC(=O)NC5=O)C7=O)C6)CC4)s3)CC2)cc1Cl (stereo partly drawn) [Compound 244] | < 10 | > 80 |  |
| CC1(C)[C@H](Oc2ccc(C#N)c(Cl)c2)C(C)(C)[C@H]1N1Cc2nc(C#CC3CCC(N4CC5CC4CN5c4cc5c(cc4F)C(=O)N(C4CCC(=O)NC4=O)C5=O)CC3)cnc2C1=O (stereo partly drawn) [Compound 386] |  |  | DC50 [3]: > 300 nM; Dmax [4]: 40 to 60% |
| CC1(C)[C@H](Oc2ccc(C#N)c(Cl)c2)C(C)(C)[C@H]1N1Cc2nc(C#CC3CCC(N4CC5(CN(c6ccc7c(c6)C(=O)N([C@@H]6CCC(=O)NC6=O)C7=O)C5)C4)CC3)ccc2C1=O (stereo partly drawn) [Compound 350, 2-Chloro-4-((1r,3r)-3-(2-((4-(6-(2-(2,6-dioxopiperidin-3-yl)-1,3-dioxoisoindolin-5-yl)-2,6-diazaspiro[3.3]heptane-2-yl)cyclohexyl)ethynyl)-5-oxo-5,7-dihydro-6H-pyrrolo[3,4-b]pyridin-6-yl)-2,2,4,4-tetramethylcyclobutoxy) benzonitrile] |  |  | Dmax (%): ++ (key: ++++: >80%; +++: 80%-60%; ++: 60%-40%; +: <40%); DC50 (read-out: DC50): 100 to 300 nM |
| N#Cc1ccc(O[C@H]2CC[C@H](NC(=O)c3cnc(N4CC5(CCN(C6CCN(c7cc8c(cc7F)C(=O)N(C7CCC(=O)NC7=O)C8=O)CC6)CC5)C4)nc3)CC2)cc1Cl (stereo partly drawn) [Compound 273, N-((1r,4r)-4-(3-chloro-4-cyanophenoxy)cyclohexyl)-2-(7-(1-(2-(2,6-dioxopiperidin-3-yl)-6-fluoro-1,3-dioxoisoindolin-5-yl)piperidine-4-yl)-2,7-diazaspiro[3.5]nonan-2-yl)pyrimidine-5-carboxamide] | 10 to 100 | 60 to 80 |  |
| CC1(C)[C@H](Oc2ccc(C#N)c(Cl)c2)C(C)(C)[C@H]1N1Cc2nc(C#CC3CC(N4CC5CN(c6cc7c(cc6F)C(=O)N(C6CCC(=O)NC6=O)C7=O)CC5C4)C3)ccc2C1=O (stereo partly drawn) [Compound 361, 2-Chloro-4-((1r,3r)-3-(2-((3-(5-(2,6-dioxopiperidin-3-yl)-6-fluoro-1,3-dioxoisoindolin-5-yl)hexahydropyrrolo[3,4-c]pyrrol-2(1H)-cyclobutyl)ethynyl)-5-oxo-5,7-dihydro-6H-pyrrolo[3,4-b]pyridin-6-yl)-2,2,4,4-tetramethylcyclobutoxy) benzonitrile] | 10 to 100 |  |  |
| N#Cc1ccc(O[C@H]2CC[C@H](NC(=O)c3nnc(N4CCC(N5CCC6(CC5)CN(c5cc7c(cc5F)C(=O)N(C5CCC(=O)NC5=O)C7=O)C6)CC4)s3)CC2)cc1Cl (stereo partly drawn) [Compound 83] | > 300 | < 40 |  |
| N#Cc1ccc(O[C@H]2CC[C@H](NC(=O)c3nc(N4CCC(CN5CCC6(CC5)CN(c5ccc7c(c5)C(=O)N(C5CCC(=O)NC5=O)C7=O)C6)CC4)no3)CC2)cc1Cl (stereo partly drawn) [Compound 413] |  | > 80 | DC50: < 10 nM |
| CC1(C)[C@H](Oc2ccc(C#N)c(Cl)c2)C(C)(C)[C@H]1N1Cc2nc(C#CC3CCC(N4CC5CC4CN5c4ccc5c(c4)C(=O)N(C4CCC(=O)NC4=O)C5=O)CC3)cnc2C1=O (stereo partly drawn) [Compound 388, 2-Chloro-4-((1r,3r)-3-(2-((4-(5-(2-(2,6-dioxopiperidin-3-yl)-1,3-dioxoisoindolin-5-yl)-2,5-diazabicyclo[2.2.1]heptan-2-yl)cyclohexyl)ethynyl)-5-oxo-5,7-dihydro-pyrrolo[3,4-b]pyrazine-26-yl)-2,2,4,4-tetramethylcyclobutoxy) benzonitrile] |  |  | Dmax (%) (AR degradation, VCaP cells, 16 h, ELISA, Table 3-2): ++ (60%-40%); DC50 [3]: 100 to 300 nM |
| N#Cc1ccc(O[C@H]2CC[C@H](NC(=O)c3ncc(N4CC5(CCN(CC6CCN(c7cc8c(cc7F)C(=O)N(C7CCC(=O)NC7=O)C8=O)CC6)CC5)C4)cn3)CC2)cc1Cl (stereo partly drawn) [Compound 150] | > 300 | < 40 |  |
| C[C@@H]1CN(c2ccc(C(=O)N[C@H]3CC[C@H](Oc4ccc(C#N)c(Cl)c4)CC3)nn2)CCN1C[C@H]1[C@@H]2CN(c3cc4c(cc3F)C(=O)N(C3CCC(=O)NC3=O)C4=O)C[C@@H]21 (stereo partly drawn) [Compound 265] | 10 to 100 |  | Dmax [2]: 60 to 80% |
